Source: US20180185370A1, “PYRAZINOQUINAZOLINONE DERIVATIVES WITH ANTIBACTERIAL ACTIVITY, METHODS AND USES THEREOF” (UNIVERSIDADE DO PORTO, priority 2015, published 2018)
Like-named read-outs stand apart in the source and are kept apart here.

Columns and labels:
[1] = system: S. aureus B1; assay: Synergy screening with antibiotic discs, disc diffusion method; type: cell-based, Staphylococcus aureus; details: for zone of inhibition on agar plates: not in combination, MRSA isolate S. aureus B1; for inhibition zone: S. aureus B1
Method: (§1) Synergistic studies between compounds and antibiotics. A screening susceptibility test to assess the combined effect between the compounds and antibiotics was conducted using the disc diffusion method on MH, against three multidrug-resistant isolates, E. coli G1, S. aureus B1 and E. faecalis W1. A set of antibiotic discs (Oxoid, Basingstoke, England) was selected based on the resistance of the isolates towards those antibiotics. Based on the results of the previous assay, an unexpected synergetic effect between fiscalin C (see FIG. 1I, equation v) and oxacillin (Sigma-Aldrich, St. Louis, Mo., USA) was determined using, in particular, a broth microdilution Checkerboard method against the MRSA isolate (S. aureus B1). The fractional inhibitory concentration (FIC) was calculated as follows: FIC of drug A (FIC A)=MIC of drug A in combination/MIC of drug A alone, and FIC of drug B (FIC B)=MIC of drug B in combination/MIC of drug B alone. The FIC index (ΣFIC), calculated as the sum of each FIC, was interpreted as follows: ΣFIC 0.5, synergy; 0.5<ΣFIC 4, no interaction; 4<ΣFIC, antagonism.

[2] = system: S. aureus B1; assay: Broth microdilution Checkerboard method; type: cell-based, Staphylococcus aureus; details: for combined effect with oxacillin: fiscalin C with oxacillin, MRSA (S. aureus B1)
Method: as §1, with “Based on the results of the previous assay, an unexpected synergetic effect between fiscalin C (see FIG. 1I, equation v) and oxacillin (Sigma-Aldrich, St. Louis, Mo., USA) was determined using, in particular, a broth microdilution Checkerboard method against the MRSA isolate (S. aureus B1).” left out

[3] = system: S. aureus ATCC 25923; assay: Antibacterial susceptibility testing, broth microdilution (MIC/MBC); type: cell-based, Staphylococcus aureus; details: for MIC: Staphylococcus aureus, ATCC25923, read-out: Minimum inhibitory concentration-MIC
Method: (§2) Bacterial strains and growth conditions. Five reference strains, Staphylococcus aureus ATCC 25923, Bacillus subtilis ATCC 6633, E. faecalis ATCC 29212, Escherichia coli ATCC 25922 and Pseudomonas aeruginosa ATCC 27853, and three multidrug-resistant isolates from environment, S. aureus B1 (a MRSA isolated from public buses), Enterococcus faecalis W1 (a VRE isolated from river water) and E. coli G1 (isolated from seagull feces) were used. Bacteria were grown overnight at 37° C. in Mueller-Hinton agar (MH—BioKar diagnostics, Allonne, France) prior to obtain be used in the subsequently described bioassays.
(§3) Antibacterial susceptibility testing. The minimum inhibitory concentration (MIC) values of the compounds of FIGS. 1D, 1E, 1G, 1H (equation i-iv) and 11 (equations v-x) were determined, in particular, by a broth microdilution technique, following the recommendations of the Clinical and Laboratory Standards Institute. Stock solutions of 10 mg/ml in DMSO were used to prepare in-test concentrations ranging from 2 to 256 μg/ml. Ciprofloxacin in the concentration range from 0.03125 to 16 μg/ml was used, in particular, as control drug in the experiment. The MIC was defined as the lowest concentration of compound that has inhibited the visible growth. The minimum bactericidal concentration (MBC) was determined by spreading on MH plates, 10 μL collected from the wells corresponding to the MIC and to higher concentrations, with further incubation for 24 h at 37° C.; the lowest concentration at which no growth occurred on MH was defined as the MBC.

[4] = system: S. aureus B1 (MRSA); assay: as above; type: cell-based, Staphylococcus aureus; details: for MIC: Staphylococcus aureus, read-out: Minimum inhibitory concentration-MIC
Method: as §2, §3

[5] = system: B. subtilis ATCC 6633; assay: as above; type: cell-based, Bacillus subtilis; details: for MIC: Bacillus subtilis, ATCC6633, read-out: Minimum inhibitory concentration-MIC
Method: as §2, §3

[6] = system: P. aeruginosa ATCC 27853; assay: Antibacterial susceptibility testing, broth microdilution (MIC); type: cell-based, Pseudomonas aeruginosa; details: for MIC: Pseudomonas aeruginosa, ATCC27853, read-out: Minimum inhibitory concentration-MIC
Method: as §2, §3

[7] = system: E. coli ATCC 25922; assay: as above; type: cell-based, Escherichia coli; details: for MIC: Escherichia coli, ATCC25922, read-out: Minimum inhibitory concentration-MIC
Method: as §2, §3

[8] = system: E. faecalis ATCC 29212; assay: Antibacterial susceptibility testing, broth microdilution (MIC/MBC); type: cell-based, Enterococcus faecalis; details: for MIC: Enterococcus faecalis, ATCC29212, read-out: Minimum inhibitory concentration-MIC
Method: as §2, §3

[9] = system: E. faecalis W1 (VRE); assay: as above; type: cell-based, Enterococcus faecalis; details: for MIC: Enterococcus faecalis, read-out: Minimum inhibitory concentration-MIC
Method: as §2, §3

Row | Compound | Minimum inhibitory concentration-MIC [3] [µg/mL] | Minimum inhibitory concentration-MIC ([4]; S. aureus B1 (MRSA)) [µg/mL] | Minimum inhibitory concentration-MIC [5] [µg/mL] | Minimum inhibitory concentration-MIC [6] [µg/mL] | Minimum inhibitory concentration-MIC [7] [µg/mL] | Minimum inhibitory concentration-MIC [8] [µg/mL] | Minimum inhibitory concentration-MIC ([9]; E. faecalis W1 (VRE)) [µg/mL] | other results
1 | CC1(C)S[C@@H]2[C@H](NC(=O)[C@H](N)c3ccccc3)C(=O)N2[C@H]1C(=O)O [Ampicillin, ampicillin, reference compound] |  |  |  |  |  |  |  | zone of inhibition on agar plates [1]: neither fiscalin C, ampicillin or oxacillin produced any zone of inhibition; MIC ([2]; Staphylococcus aureus, B1): 128 µg/mL
2 | CC(C)[C@]12NC(=O)[C@H](Cc3c1[nH]c1ccccc31)n1c2nc2ccccc2c1=O [FIG. 1D, sartorymensin] | > 256 | >256 | >256 | >256 | >256 | >256 | >256 | 
3 | CC(=O)O[C@H](c1nc2ccccc2c(=O)n1[C@@H]1C[C@]2(OC1=O)c1ccccc1N1C(=O)C(C)(C)N(O)[C@H]12)C(C)C [FIG. 1E, tryptoquivaline] |  |  |  |  |  |  |  | MIC [3]: > 256 µg/mL; MIC ([4]; MRSA): > 256 µg/mL; MIC [5]: > 256 µg/mL; MIC [6]: > 256 µg/mL; MIC [7]: > 256 µg/mL; MIC [8]: > 256 µg/mL; MIC ([9]; VRE): > 256 µg/mL
4 | O=C1OC2(CC1n1cnc3ccccc3c1=O)C(=O)Nc1ccccc12 (centres unmarked) [FIG. 1G, 3′-(4oxoquinazolin-3yl) spiro [1H-indole-3,5′-oxolane]-2,2′-dione] |  |  |  |  |  |  |  | MIC [3]: > 256 µg/mL; MIC ([4]; S. aureus B1 (MRSA)): > 256 µg/mL; MIC [5]: > 256 µg/mL; MIC [6]: > 256 µg/mL; MIC [7]: > 256 µg/mL; MIC [8]: > 256 µg/mL; MIC ([9]; E. faecalis W1 (VRE)): > 256 µg/mL
5 | CC1(C)C(=O)N2c3ccccc3C3(CC(n4cnc5ccccc5c4=O)C(=O)O3)C2N1O (centres unmarked) [FIG. 1H (eq. i), tryptoquivaline L] | > 256 | >256 | >256 | >256 | >256 | >256 | >256 | 
6 | C[C@H]1C(=O)N2c3ccccc3[C@@]3(C[C@@H](n4cnc5ccccc5c4=O)C(=O)O3)[C@@H]2N1O [FIG. 1H (eq. ii), tryptoquivaline H] | > 256 | >256 | >256 | >256 | >256 | >256 | >256 | 
7 | C[C@@H]1N[C@@H]2N(C1=O)c1ccccc1[C@@]21C[C@@H](n2cnc3ccccc3c2=O)C(=O)O1 [FIG. 1H (eq. iii), tryptoquivaline F] | >256 | >256 | >256 | >256 | >256 | >256 | >256 | 
8 | CC(C)[C@@H]1NC(=O)[C@@H](C[C@]2(O)c3ccccc3N3C(=O)C(C)(C)N[C@H]32)n2c1nc1ccccc1c2=O [FIG. 1I (eq. v), fiscalin C] | >256 | >256 | >256 | >256 | >256 | >256 | >256 | inhibition zone ([1]; fiscalin C in combination with ampicillin): 8 mm; inhibition zone ([1]; fiscalin C in combination with oxacillin): 10 mm; zone of inhibition on agar plates [1]: neither fiscalin C, ampicillin or oxacillin produced any zone of inhibition; MIC ([2]; drug alone, S. aureus B1): >512 µg/mL; combined effect with ampicillin ([2]; fiscalin C with ampicillin, S. aureus B1): indifferent; combined effect with oxacillin ([2]; listed as Fiscalin C): synergistic effect; combined effect with oxacillin ([2]; listed as fiscalin C): clear synergistic effect
9 | CC(C)[C@@H]1NC(=O)[C@@H](C[C@]2(O)c3ccccc3N3C(=O)[C@H](C)N[C@H]32)n2c1nc1ccccc1c2=O [FIG. 1I (eq. vii), fiscalin A] | >256 | >256 | >256 | >256 | >256 | >256 | >256 | 
10 | CC(C)[C@H]1NC(=O)[C@@H](C[C@]2(O)c3ccccc3N3C(=O)[C@H](C)N[C@H]32)n2c1nc1ccccc1c2=O [FIG. 1I (eq. viii), epi-fiscalin A] | >256 | >256 | >256 | >256 | >256 | >256 | >256 | 
11 | Cc1onc(-c2ccccc2)c1C(=O)N[C@@H]1C(=O)N2[C@@H]1SC(C)(C)[C@@H]2C(=O)O [Oxacillin, oxacillin, reference compound] |  |  |  |  |  |  |  | zone of inhibition on agar plates [1]: neither fiscalin C, ampicillin or oxacillin produced any zone of inhibition; MIC ([2]; Staphylococcus aureus, drug alone, S. aureus B1, read-out: MIC): 128 µg/mL
12 | epi-fiscalin C [FIG. 1I (eq. vi)] | >256 | >256 | >256 | >256 | >256 | >256 | >256 | 
13 | epi-neofiscalin A [FIG. 1I (eq. x)] | >256 | >256 | >256 | >256 | >256 | >256 | >256 | 
14 | tryptoquivaline O [FIG. 1H (eq. iv)] | >256 | >256 | >256 | >256 | >256 | >256 | >256 | 
